From the Deep4Chem optical property database
Several values for one entry are separate records, joined by “and”; a condition that tells them apart may be missing. Equal entries are not always repeated. Values belong to the compound of their own block, whether it stands above or below them.

Assay: photoluminescence quantum yield (fraction); solvent given as SMILES
[1] = in O=P(c1ccccc1)(c1ccccc1)c1ccccc1Oc1ccccc1P(=O)(c1ccccc1)c1ccccc1

Compound: C[n+]1cc2ccc3c[n+](C)c4ccccc4c3c2c2ccccc21
photoluminescence quantum yield (in CC#N): 0.066

Compound: COc1ccc(C(=O)NN2C3=C(CC4=C2CCCC4=O)C(=O)CCC3)cc1
photoluminescence quantum yield (in CC#N): 0.59
photoluminescence quantum yield (in CC(C)=O): 0.48
photoluminescence quantum yield (in CCCCCO): 0.6
photoluminescence quantum yield (in CO): 0.32
photoluminescence quantum yield (in ClC(Cl)Cl): 0.57
photoluminescence quantum yield (in ClCCl): 0.57

Compound: c1ccc2c(c1)CCc1c-2cnc2c1-c1ccccc1CC2
photoluminescence quantum yield (in C1CCOC1): 0.665
photoluminescence quantum yield (in CC#N): 0.69
photoluminescence quantum yield (in CCCCCC): 0.149
photoluminescence quantum yield (in CCOC(C)=O): 0.567
photoluminescence quantum yield (in CO): 0.141
photoluminescence quantum yield (in CS(C)=O): 0.227
photoluminescence quantum yield (in Cc1ccccc1): 0.513
photoluminescence quantum yield (in ClCCl): 0.291

Compound: Cc1cc(N2c3ccccc3C(C)(C)c3ccccc32)ccc1-c1ncnc(-c2ccc(N3c4ccccc4C(C)(C)c4ccccc43)cc2C)c1C
photoluminescence quantum yield [1]: 0.47

Compound: COc1ccc(N(c2ccc(C=C(c3ccccc3)c3ccccc3)cc2)c2ccc(C=C(c3ccccc3)c3ccccc3)cc2)cc1
photoluminescence quantum yield (in Cc1ccccc1): 0.06

Compound: CC(C)(C)N1C(=O)c2c(cc3ccc4cccc5ccc2c3c45)C1O (stereo not drawn)
photoluminescence quantum yield (in ClC(Cl)Cl): 0.14 and 0.143

Compound: CCC1(CC)c2cc(C#Cc3cc(C#Cc4ccc5c(c4)C(CC)(CC)c4cc(N(c6ccccc6)c6ccccc6)ccc4-5)c4ccc5c(C#Cc6ccc7c(c6)C(CC)(CC)c6cc(N(c8ccccc8)c8ccccc8)ccc6-7)cc(C#Cc6ccc7c(c6)C(CC)(CC)c6cc(N(c8ccccc8)c8ccccc8)ccc6-7)c6ccc3c4c65)ccc2-c2ccc(N(c3ccccc3)c3ccccc3)cc21
photoluminescence quantum yield (in Cc1ccccc1): 0.43

Compound: C(=C\c1ncc(-c2ccc(OCc3ccccc3)c(OCc3ccccc3)c2)o1)/c1cccc(N2CCN(c3ccccc3)CC2)c1
photoluminescence quantum yield (in ClCCl): 0.11

Compound: Cc1ccsc1-c1ccc(-c2ccc(-c3sccc3C)s2)s1
photoluminescence quantum yield (in CCC(C)C): 0.19

Compound: CCOC(=O)c1ccc(C2=Cc3cc4ccccc4cc3P2(=O)c2ccccc2)cc1 (stereo not drawn)
photoluminescence quantum yield (in ClCCl): 0.54

Compound: CCN(CC)c1ccc2cc(/C=C(\C#N)c3nc4ccccc4s3)c(=O)oc2c1
photoluminescence quantum yield (in C1COCCO1): 0.0043
photoluminescence quantum yield (in CC#N): 0.0027
photoluminescence quantum yield (in CCO): 0.0048
photoluminescence quantum yield (in CCOC(C)=O): 0.0035
photoluminescence quantum yield (in CN(C)C=O): 0.0122
photoluminescence quantum yield (in CO): 0.0061
photoluminescence quantum yield (in CS(C)=O): 0.0104
photoluminescence quantum yield (in Cc1ccccc1): 0.0036
photoluminescence quantum yield (in ClCCl): 0.0033

Compound: O=Cc1nc2ccc(C#Cc3ccc(N(c4ccc(C#Cc5ccc6nc(C=O)sc6c5)cc4)c4ccc(C#Cc5ccc6nc(C=O)sc6c5)cc4)cc3)cc2s1
photoluminescence quantum yield (in Cc1ccccc1): 0.65

Compound: CCC1=C(C)C2=Cc3c4ccccc4c4n3[B-](c3ccccc3)(Oc3ccccc3-4)[N+]2=C1C (stereo not drawn)
photoluminescence quantum yield (in CC#N): 0.75
photoluminescence quantum yield (in CCCCCC): 0.77
photoluminescence quantum yield (in Cc1ccccc1): 0.64
photoluminescence quantum yield (in ClCCl): 0.75

Compound: CCCCCCCCOc1ccc(C#Cc2ccc3c(c2)c2ccccc2n3CCCCCCCC)c(OCCCCCCCC)c1
photoluminescence quantum yield (in ClCCl): 0.33

Compound: F[B-]1(F)OC(C#Cc2ccccc2)=CC(c2ccccc2)=[O+]1
photoluminescence quantum yield (in ClCCl): 0.43

Compound: CCN(CC)c1ccc2c(C#N)c(/C=C(\C#N)c3nc4ccccc4o3)c(=O)oc2c1
photoluminescence quantum yield (in C1COCCO1): 0.0328
photoluminescence quantum yield (in CC#N): 0.0658
photoluminescence quantum yield (in CCO): 0.0144
photoluminescence quantum yield (in CCOC(C)=O): 0.0434
photoluminescence quantum yield (in CO): 0.0121
photoluminescence quantum yield (in Cc1ccccc1): 0.101
photoluminescence quantum yield (in ClCCl): 0.105

Compound: CCC1=C(C)C2=C(c3cc(C4=C5C(C)=C(CC)C(C)=[N+]5[B-](F)(F)n5c(C)c(CC)c(C)c54)cc(C4=C5C(C)=C(CC)C(C)=[N+]5[B-](F)(F)n5c(C)c(CC)c(C)c54)c3)c3c(C)c(CC)c(C)n3[B-](F)(F)[N+]2=C1C
photoluminescence quantum yield (in C1CCOC1): 0.91
photoluminescence quantum yield (in CC#N): 0.62
photoluminescence quantum yield (in CN(C)C=O): 0.73
photoluminescence quantum yield (in Cc1ccccc1): 0.95
photoluminescence quantum yield (in ClC(Cl)Cl): 0.88

Compound: CC(C)[Si](C#Cc1cc2c3c(c1)c(=C1c4ccccc4Sc4ccccc41)c1cc(C#C[Si](C(C)C)(C(C)C)C(C)C)cc4c1N3c1c(cc(C#C[Si](C(C)C)(C(C)C)C(C)C)cc1c4=C1c3ccccc3Sc3ccccc31)c2=C1c2ccccc2Sc2ccccc21)(C(C)C)C(C)C
photoluminescence quantum yield (in ClCCl): 0.46

Compound: Nc1ccc2c(c1)Cc1ccccc1-2
photoluminescence quantum yield (in C1CCCCC1): 0.74
photoluminescence quantum yield (in C1COCCO1): 0.73
photoluminescence quantum yield (in CC#N): 0.52
photoluminescence quantum yield (in CO): 0.84
photoluminescence quantum yield (in O): 0.2

Compound: C(#Cc1ccc2ccc3cccc4ccc1c2c34)c1ccccc1
photoluminescence quantum yield (in Cc1ccccc1): 0.61

Compound: CCCCCCCCOc1ccc(C#Cc2c3cc4ccccc4cc3c(C#Cc3ccc(F)cc3)c3cc4ccccc4cc23)cc1
photoluminescence quantum yield (in ClCCl): 0.03

Compound: CCN(CC)/C(C)=N\c1ccc2c3c(cccc13)C(=O)c1ccccc1-2
photoluminescence quantum yield (in C1CCOC1): 0.17
photoluminescence quantum yield (in CCCCCC): 0.21
photoluminescence quantum yield (in CCO): 0.14
photoluminescence quantum yield (in CCOC(C)=O): 0.22
photoluminescence quantum yield (in CN(C)C=O): 0.15
photoluminescence quantum yield (in CO): 0.14
photoluminescence quantum yield (in Cc1ccccc1): 0.56
photoluminescence quantum yield (in ClC(Cl)(Cl)Cl): 0.31
photoluminescence quantum yield (in ClC(Cl)Cl): 0.49
photoluminescence quantum yield (in ClCCl): 0.5
photoluminescence quantum yield (in c1ccccc1): 0.55

Compound: Cc1ccc2c(c1)c1cc(C)ccc1n2-c1cc(-c2nc(-c3ccccc3)nc(-c3ccccc3)n2)cc(-n2c3ccc(C)cc3c3cc(C)ccc32)c1-n1c2ccc(C)cc2c2cc(C)ccc21
photoluminescence quantum yield [1]: 1

Compound: CCC1=C(C)C2=Cc3cc(I)c(I)n3[B-](F)(F)[N+]2=C1C
photoluminescence quantum yield (in C1CCCCC1): 0.26
photoluminescence quantum yield (in CC(C)=O): 0.16
photoluminescence quantum yield (in CCO): 0.2
photoluminescence quantum yield (in CCOC(C)=O): 0.19
photoluminescence quantum yield (in CO): 0.17
photoluminescence quantum yield (in OCC(F)(F)F): 0.12

Compound: CC1(C)OB(c2ccc3ccc4cccc5ccc2c3c45)OC1(C)C
photoluminescence quantum yield (in Cc1ccccc1): 0.81

Results, then the compound that gave them:

photoluminescence quantum yield (in ClC(Cl)Cl): 0.05
Compound: CCCCCCN(c1ccccc1)c1ccc(/C=C/c2cc(=O)oc3cc(C)ccc23)cc1

photoluminescence quantum yield (in ClC(Cl)Cl): 0.151
Compound: CC(C)(C)NC(=O)c1c([Si](C)(C)C)cc2ccc3cccc4ccc1c2c34

photoluminescence quantum yield (in CCO): 0.049
photoluminescence quantum yield (in CS(C)=O): 0.023
photoluminescence quantum yield (in O): 0.007
Compound: CC1(C)C(/C=C/c2cc3ccc(O)cc3oc2=O)=[N+](CCCS(=O)(=O)[O-])c2ccccc21

photoluminescence quantum yield (in CCO): 0.52
photoluminescence quantum yield (in ClC(Cl)Cl): 0.2
Compound: CCOc1ccc2c(-c3nc(-c4cccc(Br)c4)no3)cc(=O)oc2c1

photoluminescence quantum yield (in CS(C)=O): 0.136
Compound: CCOC(=O)C1=C(N)n2c(=O)c3ccccc3c(=O)n2C1c1ccccc1 (stereo not drawn)

photoluminescence quantum yield (in CCO): 0.08
photoluminescence quantum yield (in ClCCl): 0.16
Compound: c1ccc(-c2c3ccccc3c(-c3ncccn3)c3ccccc23)cc1

photoluminescence quantum yield (in ClCCl): 0.14
Compound: CC(C)(C)c1ccc(C#Cc2cc3ccc4cc(C#Cc5ccc(C(C)(C)C)cc5)cc5ccc(c2)c3c45)cc1

photoluminescence quantum yield (in CS(C)=O): 0.26
Compound: COc1ccc(C2C3=C(CCCC3=O)Nc3c2c(=O)oc2ccccc32)cc1 (stereo not drawn)

photoluminescence quantum yield (in ClCCl): 0.4
Compound: c1ccc(C2(c3ccccc3)c3ccc4ccc5ccccc5c4c3-c3c2ccc2ccc4ccccc4c32)cc1

photoluminescence quantum yield (in ClCCl): 0.21
Compound: C(=C\c1ncc2ccccc2n1)/c1ccc(N2CCCCC2)cc1

photoluminescence quantum yield (in ClC(Cl)Cl): 0.37
Compound: CCCN1c2ccccc2Sc2cc(/C=C\c3cc(=O)oc4c(O)c(O)ccc34)ccc21

photoluminescence quantum yield (in CO): 0.088
Compound: CC1(C)C(/C=C/C2=C(c3ccc(C(=O)O)cc3)C(=C/C=C3/N(CCCS(=O)(=O)[O-])c4ccc5ccccc5c4C3(C)C)/CCC2)=[N+](CCCS(=O)(=O)[O-])c2ccc3ccccc3c21

photoluminescence quantum yield (in CC#N): 0.886
Compound: N#Cc1nn(-c2ccccc2)nc1N1CCCC1

photoluminescence quantum yield (in C1CCOC1): 0.55
photoluminescence quantum yield (in CC(C)O): 0.6
photoluminescence quantum yield (in CO): 0.54
photoluminescence quantum yield (in CS(C)=O): 0.31
photoluminescence quantum yield (in ClC(Cl)Cl): 0.32
photoluminescence quantum yield (in ClCCl): 0.37
Compound: Cc1ccc(-n2c(-c3ccccc3O)nc(-c3ccccc3O)c2-c2ccccc2O)cc1

photoluminescence quantum yield (in C1COCCO1): 0.3
photoluminescence quantum yield (in CC#N): 0.16
photoluminescence quantum yield (in CCCCCCC): 0.4
photoluminescence quantum yield (in CO): 0.02
Compound: C(/C=C/c1ccc(N(c2ccccc2)c2ccccc2)cc1)=C\c1ccncc1

photoluminescence quantum yield (in ClCCl): 0.64
photoluminescence quantum yield (in O): 0.08
photoluminescence quantum yield (in OCC(O)CO): 0.11
Compound: C[n+]1ccc(/C=C/c2ccc(N(c3ccccc3)c3ccc(/C=C/c4cc[n+](C)cc4)cc3)cc2)cc1

photoluminescence quantum yield (in C1CCOC1): 0.166
Compound: N#Cc1ccc(/C=C/c2ccc(C=C(c3ccccc3)c3ccccc3)cc2)cc1

photoluminescence quantum yield (in CC#N): 0.46
photoluminescence quantum yield (in CO): 0.01
photoluminescence quantum yield (in ClCCl): 0.66
Compound: COc1ccc(O)c(-c2[nH]c(=O)n3c2-c2ccccc2C3=O)c1

photoluminescence quantum yield (in CC#N): 0.17 and 0.47
Compound: Cc1cc2nc3c(=O)n(C)c(=O)nc-3n(C)c2cc1C

photoluminescence quantum yield (in C1CCOC1): 0.077
Compound: Cc1cc(C2=C(c3c(C)sc(-c4ccc(-c5nc(-c6ccccc6)c(-c6ccccc6)[nH]5)cc4)c3C)C(F)(F)C(F)(F)C2(F)F)c(C)s1

photoluminescence quantum yield (in ClC(Cl)Cl): 0.5
Compound: C(#Cc1ccc(C#Cc2ccccc2)cc1)c1ccccc1

photoluminescence quantum yield (in C1CCOC1): 0.34
Compound: CCC1(CC)c2cc(B(c3c(C)cc(C)cc3C)c3c(C)cc(C)cc3C)ccc2-c2c1c1c(c3c2C(CC)(CC)c2cc(B(c4c(C)cc(C)cc4C)c4c(C)cc(C)cc4C)ccc2-3)C(CC)(CC)c2cc(B(c3c(C)cc(C)cc3C)c3c(C)cc(C)cc3C)ccc2-1

photoluminescence quantum yield (in ClC(Cl)Cl): 0.83
Compound: CCCCN1c2ccc(/C=C/c3cc(=O)oc4cc(C)ccc34)cc2Sc2cc(/C=C/c3cc(=O)oc4cc(C)ccc34)ccc21

photoluminescence quantum yield (in C1CCOC1): 0.005
photoluminescence quantum yield (in CC#N): 0.0019
photoluminescence quantum yield (in CS(C)=O): 0.0015
photoluminescence quantum yield (in ClC(Cl)Cl): 0.014
Compound: COc1cccc2cc(-c3ccc([N+](=O)[O-])cc3)c(=O)oc12

photoluminescence quantum yield (in ClCCl): 0.17
Compound: FC(F)(F)c1ccc(-c2ccc(-c3cc(-c4ccccn4)nc(-c4ccccn4)c3)cc2)cc1

photoluminescence quantum yield (in ClCCl): 0.59
Compound: c1ccc2c(c1)-c1ccccc1[Si]21c2ccccc2-c2cc3c(cc21)-c1ccccc1[Si]31c2ccccc2-c2ccccc21

photoluminescence quantum yield (in ClCCl): 0.23
Compound: COCCOCCOCCOCC(COCCOCCOCCOC)Oc1cc(/C=C/c2ccc(C=C3C(=O)c4ccccc4C3=O)cc2)c(OC(COCCOCCOCCOC)COCCOCCOCCOC)cc1/C=C/c1ccc(C=C2C(=O)c3ccccc3C2=O)cc1
